Laboratory results: patent publication US8207216B2, “Benzofuran-3-yl(indol-3-yl) maleimides as potent GSK3 inhibitors” (The Board of Trustees of the University of Illinois, priority 2006, dated 2012)

What was measured:
MIAPaCa-2 = assay: Antiproliferation MTS assay, pancreatic cancer cells; format: cell-based; conditions: Homo sapiens
BXPC-3 = assay: as above; format: cell-based; conditions: Homo sapiens, BXPC-3, as reported in Gaisina et al. (2009) J. Med. Chem. 52(7), 1853-1863
HupT3 = assay: as above; format: cell-based; conditions: Homo sapiens, HuP-T3, as reported in Gaisina et al. (2009) J. Med. Chem. 52(7), 1853-1863
[1] = tested on: pancreatic cancer cell lines; conditions: BXPC3, HupT3 and MiaPaCa-2; Ougolkov et al. (2007) Blood 110: 735-742; cited from earlier work
[2] = target: T1, recombinant human His6-GSK-3β (Homo sapiens, UniProt P49841); assay: GSK-3β kinase assay, [γ32P] transfer to primed glycogen synthase peptide; format: biochemical; conditions: 10 μM ATP; 10 μM pGSM peptide; 30 minutes at 30° C.; read-out: IC50 (nM), GSK-3β inhibition;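 further: phosphate incorporation quantified by liquid scintillation counting of the filters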
T1 construct: His6; purchased EMD Biosciences
T1 sequence (P49841 whole entry): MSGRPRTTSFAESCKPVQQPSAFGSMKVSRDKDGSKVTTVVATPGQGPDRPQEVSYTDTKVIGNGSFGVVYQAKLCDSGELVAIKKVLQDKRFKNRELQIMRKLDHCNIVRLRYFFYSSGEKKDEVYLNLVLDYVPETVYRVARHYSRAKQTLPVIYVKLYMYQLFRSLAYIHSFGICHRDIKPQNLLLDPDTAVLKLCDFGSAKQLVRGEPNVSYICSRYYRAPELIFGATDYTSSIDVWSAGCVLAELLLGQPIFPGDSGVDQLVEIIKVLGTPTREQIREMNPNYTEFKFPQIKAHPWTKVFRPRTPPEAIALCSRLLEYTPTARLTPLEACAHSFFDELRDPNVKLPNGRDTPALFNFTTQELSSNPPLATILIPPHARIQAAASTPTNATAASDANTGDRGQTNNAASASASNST

CDK2 = CDK2 (Homo sapiens, UniProt P24941); assay: Inhibition of various kinases (% inhibition); format: biochemical
Text: (§1) Additional examples of selectivity are illustrated in Table 4.

GSK3α = GSK3α (Homo sapiens, UniProt P49840); assay: Inhibition of various kinases (% inhibition); format: biochemical
GSK3α, sequence (P49840 whole entry, species assumed): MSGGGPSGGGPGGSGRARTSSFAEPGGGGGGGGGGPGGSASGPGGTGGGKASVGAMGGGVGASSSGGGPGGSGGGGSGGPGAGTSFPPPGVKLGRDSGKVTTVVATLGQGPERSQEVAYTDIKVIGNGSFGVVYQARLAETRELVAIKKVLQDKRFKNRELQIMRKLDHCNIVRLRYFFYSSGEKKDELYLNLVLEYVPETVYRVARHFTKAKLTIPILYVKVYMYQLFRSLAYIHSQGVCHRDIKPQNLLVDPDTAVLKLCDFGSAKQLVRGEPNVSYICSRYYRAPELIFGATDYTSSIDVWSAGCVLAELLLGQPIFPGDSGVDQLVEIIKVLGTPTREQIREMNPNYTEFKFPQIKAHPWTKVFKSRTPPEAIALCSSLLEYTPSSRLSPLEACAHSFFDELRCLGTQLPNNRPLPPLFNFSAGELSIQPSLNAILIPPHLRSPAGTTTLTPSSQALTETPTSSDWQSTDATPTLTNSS
Text: as §1

PDK1 [3] = target: T2, PDK1 (Homo sapiens, UniProt O15530); assay: Inhibition of various kinases (% inhibition); format: biochemical
T2 sequence (O15530 1-556): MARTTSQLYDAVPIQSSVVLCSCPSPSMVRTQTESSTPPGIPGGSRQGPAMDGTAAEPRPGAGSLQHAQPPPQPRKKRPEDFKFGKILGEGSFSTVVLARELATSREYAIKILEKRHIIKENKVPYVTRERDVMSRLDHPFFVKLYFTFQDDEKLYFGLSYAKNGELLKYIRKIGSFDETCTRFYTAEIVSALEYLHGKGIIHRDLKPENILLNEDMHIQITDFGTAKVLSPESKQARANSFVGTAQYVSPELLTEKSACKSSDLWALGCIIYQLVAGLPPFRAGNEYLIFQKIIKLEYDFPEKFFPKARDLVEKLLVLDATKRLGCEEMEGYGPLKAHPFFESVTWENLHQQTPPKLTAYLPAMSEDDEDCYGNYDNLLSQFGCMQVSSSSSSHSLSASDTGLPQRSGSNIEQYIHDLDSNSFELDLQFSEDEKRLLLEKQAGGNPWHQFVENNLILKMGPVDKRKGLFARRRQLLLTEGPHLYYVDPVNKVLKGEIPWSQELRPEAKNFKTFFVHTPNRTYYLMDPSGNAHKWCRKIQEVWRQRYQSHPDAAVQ
Text: as §1

PKCβ2 = PKCβ2 (Homo sapiens, UniProt P05771); assay: Inhibition of various kinases (% inhibition); format: biochemical
PKCβ2, sequence (P05771 1-673 isoform P05771-2): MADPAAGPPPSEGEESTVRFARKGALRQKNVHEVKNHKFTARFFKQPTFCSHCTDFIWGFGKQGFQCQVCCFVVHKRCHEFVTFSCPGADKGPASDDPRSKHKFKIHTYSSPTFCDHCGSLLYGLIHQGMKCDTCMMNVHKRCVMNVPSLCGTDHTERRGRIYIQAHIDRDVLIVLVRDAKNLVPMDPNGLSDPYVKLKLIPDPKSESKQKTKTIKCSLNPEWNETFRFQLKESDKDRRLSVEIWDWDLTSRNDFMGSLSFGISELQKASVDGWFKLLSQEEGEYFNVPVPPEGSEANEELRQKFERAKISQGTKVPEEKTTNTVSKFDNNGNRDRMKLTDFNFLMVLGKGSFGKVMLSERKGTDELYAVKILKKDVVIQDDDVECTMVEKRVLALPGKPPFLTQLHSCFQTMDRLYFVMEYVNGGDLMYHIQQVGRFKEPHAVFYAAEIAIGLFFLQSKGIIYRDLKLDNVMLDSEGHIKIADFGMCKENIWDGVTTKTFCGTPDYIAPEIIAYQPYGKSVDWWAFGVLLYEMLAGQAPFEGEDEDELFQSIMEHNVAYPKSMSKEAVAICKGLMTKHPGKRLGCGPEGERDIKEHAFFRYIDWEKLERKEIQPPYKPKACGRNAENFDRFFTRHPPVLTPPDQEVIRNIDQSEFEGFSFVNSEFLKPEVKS
Text: as §1

GSK-3β = GSK-3β activity in cells by glycogen synthase phosphorylation, Western immunoblotting; format: cell-based
XIAP = assay: NFκB-mediated expression of XIAP in pancreatic cancer cells; format: cell-based
CDK-2/cyclinE = CDK-2/cyclinE (Homo sapiens, UniProt P24941); assay: CDK-2/CyclinE inhibition (Reaction Biology); format: biochemical; conditions: tested at Reaction Biology, Inc.
CDK-1/cyclinB = CDK-1/cyclinB (Homo sapiens, UniProt P06493); assay: CDK panel (Reaction Biology); format: biochemical; conditions: tested at Reaction Biology, Inc.
CDK-1/cyclinB, sequence (P06493 whole entry, species assumed): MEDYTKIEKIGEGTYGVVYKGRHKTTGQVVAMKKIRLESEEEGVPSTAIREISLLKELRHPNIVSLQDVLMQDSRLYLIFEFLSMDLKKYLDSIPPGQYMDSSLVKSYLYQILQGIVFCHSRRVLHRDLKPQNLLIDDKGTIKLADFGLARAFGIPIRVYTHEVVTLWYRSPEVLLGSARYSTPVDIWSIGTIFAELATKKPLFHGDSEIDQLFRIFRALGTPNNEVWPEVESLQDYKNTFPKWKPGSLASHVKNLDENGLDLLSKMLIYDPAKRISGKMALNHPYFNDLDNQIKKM
CDK-1/cyclinB, sequence (P14635 whole entry partner, species assumed): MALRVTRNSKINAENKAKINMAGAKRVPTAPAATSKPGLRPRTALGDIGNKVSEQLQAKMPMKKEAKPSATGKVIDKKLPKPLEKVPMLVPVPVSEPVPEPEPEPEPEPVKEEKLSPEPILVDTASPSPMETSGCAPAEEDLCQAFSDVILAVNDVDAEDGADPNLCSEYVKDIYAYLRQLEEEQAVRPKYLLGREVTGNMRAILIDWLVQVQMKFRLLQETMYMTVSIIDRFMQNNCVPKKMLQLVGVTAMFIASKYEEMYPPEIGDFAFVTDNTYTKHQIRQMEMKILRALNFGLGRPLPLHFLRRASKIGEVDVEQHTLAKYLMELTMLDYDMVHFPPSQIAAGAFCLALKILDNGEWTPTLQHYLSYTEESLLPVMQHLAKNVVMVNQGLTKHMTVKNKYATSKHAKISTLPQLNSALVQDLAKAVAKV

CDK-2/cyclinA = CDK-2/cyclinA (Homo sapiens, UniProt P24941); assay: CDK panel (Reaction Biology); format: biochemical; conditions: tested at Reaction Biology, Inc.
CDK-4/cyclinD1 = CDK-4/cyclinD1 (Homo sapiens, UniProt P11802); assay: CDK panel (Reaction Biology); format: biochemical; conditions: tested at Reaction Biology, Inc.
CDK-4/cyclinD1, sequence (P11802 whole entry, species assumed): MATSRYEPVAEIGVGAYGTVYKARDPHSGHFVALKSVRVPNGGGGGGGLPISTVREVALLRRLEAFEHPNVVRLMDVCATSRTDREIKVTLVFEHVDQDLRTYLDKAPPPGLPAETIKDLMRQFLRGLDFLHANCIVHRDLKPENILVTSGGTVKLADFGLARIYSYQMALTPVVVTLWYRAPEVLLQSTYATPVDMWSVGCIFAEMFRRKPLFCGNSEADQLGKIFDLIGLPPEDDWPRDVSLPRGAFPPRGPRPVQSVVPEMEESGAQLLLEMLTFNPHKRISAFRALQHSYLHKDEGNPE
CDK-4/cyclinD1, sequence (P24385 whole entry partner, species assumed): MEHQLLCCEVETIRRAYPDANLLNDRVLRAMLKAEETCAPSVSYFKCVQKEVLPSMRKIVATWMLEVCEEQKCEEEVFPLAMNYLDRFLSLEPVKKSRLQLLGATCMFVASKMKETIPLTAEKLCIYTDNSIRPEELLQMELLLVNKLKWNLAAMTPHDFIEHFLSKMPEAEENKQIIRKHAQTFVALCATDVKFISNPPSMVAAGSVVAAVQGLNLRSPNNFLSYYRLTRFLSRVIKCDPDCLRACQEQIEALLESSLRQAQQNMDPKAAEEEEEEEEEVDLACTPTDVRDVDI

CDK-6/cyclinD3 = CDK-6/cyclinD3 (Homo sapiens, UniProt Q00534); assay: CDK panel (Reaction Biology); format: biochemical; conditions: tested at Reaction Biology, Inc.
CDK-6/cyclinD3, sequence (Q00534 whole entry, species assumed): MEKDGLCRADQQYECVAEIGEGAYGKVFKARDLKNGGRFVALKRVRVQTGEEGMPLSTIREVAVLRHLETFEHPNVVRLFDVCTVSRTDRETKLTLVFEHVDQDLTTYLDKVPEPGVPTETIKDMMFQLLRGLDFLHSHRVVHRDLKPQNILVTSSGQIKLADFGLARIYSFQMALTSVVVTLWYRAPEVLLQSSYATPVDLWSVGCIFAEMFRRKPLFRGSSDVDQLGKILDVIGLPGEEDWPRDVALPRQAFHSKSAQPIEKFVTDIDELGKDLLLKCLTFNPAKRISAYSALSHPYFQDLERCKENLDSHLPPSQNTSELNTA
CDK-6/cyclinD3, sequence (P30281 whole entry partner, species assumed): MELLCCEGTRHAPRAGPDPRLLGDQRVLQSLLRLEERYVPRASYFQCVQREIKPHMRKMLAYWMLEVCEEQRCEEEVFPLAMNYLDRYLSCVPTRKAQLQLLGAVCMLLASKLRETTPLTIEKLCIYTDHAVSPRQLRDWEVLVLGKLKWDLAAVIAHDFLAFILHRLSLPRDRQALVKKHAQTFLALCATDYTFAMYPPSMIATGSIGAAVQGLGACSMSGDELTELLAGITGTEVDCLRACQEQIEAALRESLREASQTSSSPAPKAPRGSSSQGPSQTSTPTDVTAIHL

CDK-9/cyclinT1 = CDK-9/cyclinT1 (Homo sapiens, UniProt P50750); assay: CDK panel (Reaction Biology); format: biochemical; conditions: tested at Reaction Biology, Inc.
CDK-9/cyclinT1, sequence (P50750 whole entry, species assumed): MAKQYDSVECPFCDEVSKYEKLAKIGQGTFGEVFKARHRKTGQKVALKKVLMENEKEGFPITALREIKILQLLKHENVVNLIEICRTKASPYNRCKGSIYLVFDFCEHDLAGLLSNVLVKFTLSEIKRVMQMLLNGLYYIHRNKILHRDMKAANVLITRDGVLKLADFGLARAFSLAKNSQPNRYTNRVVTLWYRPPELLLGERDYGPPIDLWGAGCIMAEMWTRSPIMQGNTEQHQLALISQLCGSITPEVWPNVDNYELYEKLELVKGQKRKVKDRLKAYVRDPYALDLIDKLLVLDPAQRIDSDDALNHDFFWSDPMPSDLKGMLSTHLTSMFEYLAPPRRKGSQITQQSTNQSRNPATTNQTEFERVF
CDK-9/cyclinT1, sequence (O60563 whole entry partner, species assumed): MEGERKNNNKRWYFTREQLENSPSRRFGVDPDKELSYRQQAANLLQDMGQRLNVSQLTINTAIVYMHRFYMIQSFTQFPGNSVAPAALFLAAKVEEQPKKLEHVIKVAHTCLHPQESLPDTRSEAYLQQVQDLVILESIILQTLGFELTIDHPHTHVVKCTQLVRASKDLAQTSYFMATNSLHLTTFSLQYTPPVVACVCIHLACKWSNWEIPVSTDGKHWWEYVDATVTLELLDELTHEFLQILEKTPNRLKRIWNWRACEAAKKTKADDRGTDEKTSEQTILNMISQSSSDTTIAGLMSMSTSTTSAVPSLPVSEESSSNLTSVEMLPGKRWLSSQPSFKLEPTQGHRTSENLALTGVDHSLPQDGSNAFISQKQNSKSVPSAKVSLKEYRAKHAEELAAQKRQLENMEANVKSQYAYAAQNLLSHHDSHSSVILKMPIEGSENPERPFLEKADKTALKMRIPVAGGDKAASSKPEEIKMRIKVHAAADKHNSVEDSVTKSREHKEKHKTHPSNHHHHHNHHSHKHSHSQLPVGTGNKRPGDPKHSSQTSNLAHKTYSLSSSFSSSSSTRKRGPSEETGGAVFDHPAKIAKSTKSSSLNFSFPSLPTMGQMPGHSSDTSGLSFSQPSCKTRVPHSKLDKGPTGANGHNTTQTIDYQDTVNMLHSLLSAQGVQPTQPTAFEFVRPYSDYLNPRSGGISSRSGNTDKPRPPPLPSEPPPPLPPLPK

CDK-3/cyclinE = CDK-3/cyclinE (Homo sapiens, UniProt Q00526); conditions: read-out: IC50 (μM) CDK-3/cyclinE; tested at Reaction Biology, Inc.
OVCA432 = assay: Antiproliferation assay, ovarian cancer cells; format: cell-based; conditions: ovarian cancer cell proliferation
Experimental: (§2) The pancreatic cancer cell lines BxPc-3, HupT3, MiaPaCa-2, Panc 04.03, and SU86.86 were obtained from ATCC (Rockville, Md.) and were grown in medium (DMEM or RPMI) containing 10% fetal calf serum and L-glutamine. Pancreatic cancer cells were plated out in duplicate into 6-wells of a 96-well microtiter plate at 2.5−4×10^3 cells per well. Four-hours post plating, individual wells were treated with diluent (DMSO) or varying concentrations of commercial compounds, AR-A014418 and SB216763, or the indicated GSK inhibitors of this invention from a concentration of 1 nM to 50 microM. […] The IC50s were calculated using XLfit (IDBS Limited, Guildford, UK).
(§3) Similar antiproliferation assays were performed using ovarian cancer cells. Compound 40 is of particular interest for inhibition of ovarian cancer cell proliferation.

SKOV3 = assay: Antiproliferation assay, ovarian cancer cells; format: cell-based; conditions: Homo sapiens, SK-OV-3; ovarian cancer cell proliferation
Experimental: as §2, §3

[4] = tested on: pancreatic cancer cell lines; assay: Proliferation and survival of pancreatic cancer cells (overall statements); format: cell-based
Experimental: as §2

HER-1 = HER-1 (Homo sapiens, UniProt P00533); assay: Kinase panel (Novartis); format: biochemical
KDR = KDR (Homo sapiens, UniProt P35968); assay: Kinase panel (Novartis); format: biochemical
Flt-3 = Flt-3 (Homo sapiens, UniProt P36888); assay: Kinase panel (Novartis); format: biochemical
IGF-1R = IGF-1R (Homo sapiens, UniProt P08069); assay: Kinase panel (Novartis); format: biochemical
Tek = Tek (Homo sapiens, UniProt Q02763); assay: Kinase panel (Novartis); format: biochemical
c-src = c-src (Homo sapiens, UniProt P12931); assay: Kinase panel (Novartis); format: biochemical
c-Met = c-Met (Homo sapiens, UniProt P08581); assay: Kinase panel (Novartis); format: biochemical
Ret = Ret (Homo sapiens, UniProt P07949); assay: Kinase panel (Novartis); format: biochemical
JAK-2 = JAK-2 (Homo sapiens, UniProt O60674); assay: Kinase panel (Novartis); format: biochemical
EphB4 = EphB4 (Homo sapiens, UniProt P54760); assay: Kinase panel (Novartis); format: biochemical
FGFR-3-K650E = FGFR-3-K650E (Homo sapiens, UniProt P22607, K650E); assay: Kinase panel (Novartis); format: biochemical
Axl = Axl (Homo sapiens, UniProt P30530); assay: Kinase panel (Novartis); format: biochemical
FAK = FAK (Homo sapiens, UniProt Q05397); assay: Kinase panel (Novartis); format: biochemical
c-Abl = c-Abl (Homo sapiens, UniProt P00519); assay: Kinase panel (Novartis); format: biochemical
c-Abl-T3151 = c-Abl-T3151 (Homo sapiens, UniProt P00519, T315I); assay: Kinase panel (Novartis); format: biochemical
CDK2/A = CDK2/A (Homo sapiens, UniProt P24941); assay: Kinase panel (Novartis); format: biochemical
PDK1 [5] = target: T2, PDK1; assay: Kinase panel (Novartis); format: biochemical
b-Raf-V599E = b-Raf-V599E (Homo sapiens, UniProt P15056, V600E); assay: Kinase panel (Novartis); format: biochemical
CDK-5/P25 = CDK-5/P25 (Homo sapiens, UniProt Q00535); assay: CDK panel (Reaction Biology); format: biochemical; conditions: tested at Reaction Biology, Inc.
CDK-5/P35 = CDK-5/P35 (Homo sapiens, UniProt Q00535); assay: CDK panel (Reaction Biology); format: biochemical; conditions: tested at Reaction Biology, Inc.
C57BL/6J mice = conditions: Hanania et al. 2005; cited from earlier work
mice = conditions: Hanania et al. 2005, Brody et al. 2003; cited from earlier work
[6] = MIA PaCa-2, as reported in Gaisina et al. (2009) J. Med. Chem. 52(7), 1853-1863

## COc1ccc(CNC(=O)Nc2ncc([N+](=O)[O-])s2)cc1 [AR-A014418, reference compound]
MIAPaCa-2; [6]
  IC50: 29 ± 1.7 µM
MIAPaCa-2; MIA PaCa-2, 72 hrs, MTS
  IC50: 25 µM
BXPC-3
  IC50: 14 ± 0.6 µM
HupT3
  IC50: 22 ± 2.1 µM
[1]
  Pancreatic cancer cell proliferation, reference compounds: significant decrease in pancreatic cancer cell proliferation

## COc1cccc2c(C3=C(c4cn(C)c5cc(I)c(F)cc45)C(=O)NC3=O)coc12 [Compound 10, 3-(5-Fluoro-6-iodo-1-methyl-1H-indol-3-yl)-4-(7-methoxy-benzofuran-3-yl)-pyrrole-2,5-dione]
[2]
  IC50: 247 ± 28 nM
CDK2; 1 μM
  inhibition at 1 µM: 9%
CDK2; 10 μM
  inhibition at 10 µM: 35%
GSK3α; 1 μM
  inhibition at 1 µM: 60%
GSK3α; 10 μM
  inhibition at 10 µM: 95%
PDK1 [3]; 1 μM
  inhibition at 1 µM: -1%
PDK1 [3]; 10 μM
  inhibition at 10 µM: 6%
PKCβ2; 1 μM
  inhibition at 1 µM: 2%
PKCβ2; 10 μM
  inhibition at 10 µM: 15%
GSK-3β
  GSK-3β activity in pancreatic cancer cells (phosphorylation of glycogen synthase): effectively inhibited GSK-3β activity
XIAP
  NFκB-mediated expression of XIAP: pronounced decrease in NFκB-mediated expression of XIAP

## Cn1cc(C2=C(c3coc4cc(CO)ccc34)C(=O)NC2=O)c2cc(F)c(Cl)cc21 [Compound 13, 3-(6-Chloro-5-fluoro-1-methyl-1H-indol-3-yl)-4-(6-hydroxymethyl-benzofuran-3-yl)-pyrrole-2,5-dione]
[2]
  IC50: 0.95 ± 0.19 nM
CDK-2/cyclinE
  IC50: 11700 nM
CDK-1/cyclinB
  IC50: 13.4 µM
CDK-2/cyclinA
  IC50: 10.6 µM
CDK-4/cyclinD1
  IC50: 18.3 µM
CDK-6/cyclinD3
  IC50: 11.6 µM
CDK-9/cyclinT1
  IC50: 5.4 µM
CDK-3/cyclinE
  IC50: 25.1 µM

## Cn1cc(C2=C(c3coc4ccc(F)cc34)C(=O)NC2=O)c2cc3c(cc21)OCO3 [Compound 40, 3-(5-Fluoro-benzofuran-3-yl)-4-(5-methyl-5H-[1,3]dioxolo[4,5-f]indol-7-yl)-pyrrole-2,5-dione]
[2]
  IC50: 708 ± 156 nM
OVCA432
  IC50: 11.2 µM
SKOV3
  IC50: 10.5 µM
GSK-3β
  GSK-3β activity in pancreatic cancer cells (phosphorylation of glycogen synthase): effectively inhibited GSK-3β activity
XIAP
  NFκB-mediated expression of XIAP: pronounced decrease in NFκB-mediated expression of XIAP

## COc1cc2c(C3=C(c4coc5ccccc45)C(=O)NC3=O)cn(C)c2cc1Cl [Compound 42, 3-Benzofuran-3-yl-4-(6-chloro-5-methoxy-1-methyl-1H-indol-3-yl)-pyrrole-2,5-dione]
[2]
  IC50: 440 ± 22 nM
MIAPaCa-2; MIA PaCa-2, 72 hrs, MTS
  IC50: > 50 µM
GSK-3β
  GSK-3β activity in pancreatic cancer cells (phosphorylation of glycogen synthase): did not affect GSK-3β activity
[4]
  Proliferation and survival of pancreatic cancer cells: did not affect GSK-3β activity, proliferation or survival

## Cn1cc(C2=C(c3coc4ccccc34)C(=O)NC2=O)c2ccc(O)cc21 [Compound 45, 3-Benzofuran-3-yl-4-(6-hydroxy-1-methyl-1H-indol-3-yl)-pyrrole-2,5-dione]
[2]
  IC50: 15 ± 3 nM
HER-1
  IC50: 6.3 µM
KDR
  IC50: 2.2 µM
Flt-3
  IC50: > 10 µM
IGF-1R
  IC50: > 10 µM
Tek
  IC50: > 10 µM
c-src
  IC50: 4.5 µM
c-Met
  IC50: > 10 µM
Ret
  IC50: 5 µM
JAK-2
  IC50: > 10 µM
EphB4
  IC50: > 10 µM
FGFR-3-K650E
  IC50: 7 µM
Axl
  IC50: > 10 µM
FAK
  IC50: > 10 µM
c-Abl
  IC50: > 10 µM
c-Abl-T3151
  IC50: > 10 µM
CDK2/A
  IC50: > 10 µM
PDK1 [5]
  IC50: 0.73 µM
b-Raf-V599E
  IC50: > 10 µM

## COCc1cccc2c(C3=C(c4coc5ccccc45)C(=O)NC3=O)cn(C)c12 [Compound 52, 3-Benzofuran-3-yl-4-(7-methoxymethyl-1-methyl-1H-indol-3-yl)-pyrrole-2,5-dione]
[2]
  IC50: 0.23 ± 0.04 nM
CDK-2/cyclinE
  IC50: 3880 nM
CDK-1/cyclinB
  IC50: 8.53 µM
CDK-2/cyclinA
  IC50: 4.09 µM
CDK-4/cyclinD1
  IC50: 8.62 µM
CDK-5/P25
  IC50: 12.9 µM
CDK-5/P35
  IC50: 12.7 µM
CDK-6/cyclinD3
  IC50: 8.33 µM
CDK-9/cyclinT1
  IC50: 16 µM
CDK-3/cyclinE
  IC50: 17.7 µM

## Cn1cc(C2=C(c3ccc(Cl)cc3Cl)C(=O)NC2=O)c2ccccc21 [SB216763, reference compound]
MIAPaCa-2; [6]
  IC50: 25 ± 0.9 µM
MIAPaCa-2; MIA PaCa-2, 72 hrs, MTS
  IC50: 25 µM
[1]
  Pancreatic cancer cell proliferation, reference compounds: significant decrease in pancreatic cancer cell proliferation

## Nc1nnc(-c2cccc(Cl)c2Cl)c(N)n1 [lamotrigine]
C57BL/6J mice
  Block of CDP + amphetamine hyperactivity by mood stabilizers: blocked
mice
  Sensorimotor gating (prepulse inhibition): improve sensorimotor gating

## CCCC(CCC)C(=O)O [valporate]
mice
  Sensorimotor gating (prepulse inhibition): improve sensorimotor gating
